The results in this text go back to ChEMBL document CHEMBL1138605, “Identification of 3-substituted N-benzhydryl-nortropane analogs as nociceptin receptor ligands for the management of cough and anxiety” (Bioorg Med Chem Lett, 2009).

The structures appear in SMILES notation. Activity calls are given as the source filed them. The rule behind the calls is not given here.

The target of data set [1] is T1, Nociceptin receptor (Homo sapiens, UniProt P41146). Kind of data set: Displacement of [125I][Tyr14]nociceptin from human cloned ORL1 receptor expressed in CHO cells. Format: cell-based. (In general: In a radioligand displacement assay an active substance lowers the binding of a labelled ligand.)
T1 sequence (P41146 whole entry): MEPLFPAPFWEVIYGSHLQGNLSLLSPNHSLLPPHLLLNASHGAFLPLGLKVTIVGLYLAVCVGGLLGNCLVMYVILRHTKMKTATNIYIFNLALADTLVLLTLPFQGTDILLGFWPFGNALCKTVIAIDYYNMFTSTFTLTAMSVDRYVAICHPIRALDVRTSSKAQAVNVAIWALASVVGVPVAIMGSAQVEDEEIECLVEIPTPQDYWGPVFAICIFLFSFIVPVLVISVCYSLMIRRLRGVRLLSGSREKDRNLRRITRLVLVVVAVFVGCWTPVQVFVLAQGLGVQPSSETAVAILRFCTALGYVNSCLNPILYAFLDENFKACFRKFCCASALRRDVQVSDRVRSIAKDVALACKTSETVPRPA
Data set [2] concerns the target T2, Mu-type opioid receptor (Homo sapiens, UniProt P35372). Kind of data set: Displacement of [3H]diprenorphine from human mu opioid receptor expressed in CHO cells. Format: cell-based.
The species named for a further data set is Homo sapiens. Kind of data set: Selectivity for human cloned ORL1 receptor over human mu opioid receptor.
Data set [3] concerns Cavia porcellus. Kind of data set: Anxiolytic like activity in guinea pig assessed as reduction in number of vocalization produced due to separation measured at 3 mg/kg, po after 2 hrs. Format: functional, organism-based. On the set-up: dose 3 mg/kg.
The target of data set [4] is T3, Nuclear receptor subfamily 1 group I member 2 (Homo sapiens, UniProt O75469).
T3 sequence (O75469 whole entry): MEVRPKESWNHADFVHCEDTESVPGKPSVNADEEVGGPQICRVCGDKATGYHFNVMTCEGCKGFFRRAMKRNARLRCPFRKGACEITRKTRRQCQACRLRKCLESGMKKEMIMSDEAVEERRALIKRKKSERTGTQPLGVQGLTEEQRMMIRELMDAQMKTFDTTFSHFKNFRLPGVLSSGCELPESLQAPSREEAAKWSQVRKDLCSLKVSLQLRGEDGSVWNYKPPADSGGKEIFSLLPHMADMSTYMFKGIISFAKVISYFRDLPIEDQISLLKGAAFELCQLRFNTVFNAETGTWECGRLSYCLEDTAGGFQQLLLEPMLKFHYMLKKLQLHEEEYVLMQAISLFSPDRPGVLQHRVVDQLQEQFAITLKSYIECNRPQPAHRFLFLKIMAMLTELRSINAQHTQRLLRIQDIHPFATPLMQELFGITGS
Kind of data set: Activity at PXR in human hepatocytes assessed as induction of CYP3A4 activity at 1 uM relative rifampicin. It is filed as cell-based, Hepatocyte.

For data set [5], the system named is Cavia porcellus. Kind of data set: Antitussive activity in guinea pig GPPV model assessed as reduction of capsaicin-induced coughing at 0.3 mg/kg, po after 2 hrs administered 15 mins before capsaicin challenge. Format: functional. Also on record: scale not given: the % may be the effect or the level left.
Data set [6] addresses T1, Nociceptin receptor. Kind of data set: Agonist activity at human cloned ORL1 receptor assessed as stimulation of GTPgammaS binding. Format: functional. A general note: Binding of GTPγS marks nucleotide exchange on a G protein.
Data set [7] addresses T2, Mu-type opioid receptor. Kind of data set: Agonist activity at human mu opioid receptor assessed as stimulation of GTPgammaS binding at 5.5 uM. It is filed as functional.
Data set [8] deals with T1, Nociceptin receptor. Kind of data set: Agonist activity at human cloned ORL1 receptor assessed as stimulation of GTPgammaS binding at 5.5 uM. Format: functional.
In data set [9] the target is T2, Mu-type opioid receptor. Kind of data set: Agonist activity at human mu opioid assessed as stimulation of GTPgammaS binding. Format: functional.
The species named for another data set is Rattus norvegicus. Kind of data set: Anxiolytic like activity in rat assessed as conditioned lick suppression after 2 hrs. It is filed as functional.
The target of data set [10] is Delta-type opioid receptor (Homo sapiens, UniProt P41143). Kind of data set: Displacement of [3H]diprenorphine from human delta opioid receptor expressed in CHO cells. Format: cell-based.
Delta-type opioid receptor, sequence (P41143 whole entry): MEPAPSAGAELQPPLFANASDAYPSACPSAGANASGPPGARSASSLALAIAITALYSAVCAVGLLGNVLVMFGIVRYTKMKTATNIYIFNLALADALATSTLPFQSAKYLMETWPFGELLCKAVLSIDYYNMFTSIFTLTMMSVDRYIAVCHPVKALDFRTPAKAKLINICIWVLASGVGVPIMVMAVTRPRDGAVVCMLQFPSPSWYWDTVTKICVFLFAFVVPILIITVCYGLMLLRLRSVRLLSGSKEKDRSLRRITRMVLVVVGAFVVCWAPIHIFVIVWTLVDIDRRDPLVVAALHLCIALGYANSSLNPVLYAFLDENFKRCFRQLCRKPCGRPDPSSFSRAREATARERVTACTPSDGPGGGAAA
Data set [11] addresses Kappa-type opioid receptor (Homo sapiens, UniProt P41145). Kind of data set: Displacement of [3H]diprenorphine from human kappa opioid receptor expressed in CHO cells. It is filed as cell-based.
For data set [12], the species on record is Cavia porcellus. Kind of data set: Anxiolytic like activity in guinea pig assessed as reduction in number of vocalization produced due to separation measured after 2 hrs. Format: functional.
A short description of data set [13]: Ratio of ED50 for antitussive activity in guinea pig GPPV model to ED50 for anxiolytic like activity in rat. Format: functional.
The subject of data set [14] is Cavia porcellus. Kind of data set: Antitussive activity in po dosed guinea pig GPPV model assessed as reduction of capsaicin-induced coughing after 2 hrs administered 15 mins before capsaicin challenge. Format: functional.
In data set [15] the target is T1, Nociceptin receptor. Kind of data set: Agonist activity at human cloned ORL1 receptor assessed as stimulation of GTPgammaS binding at 10 uM. Format: functional.

T2 sequence (P35372 whole entry): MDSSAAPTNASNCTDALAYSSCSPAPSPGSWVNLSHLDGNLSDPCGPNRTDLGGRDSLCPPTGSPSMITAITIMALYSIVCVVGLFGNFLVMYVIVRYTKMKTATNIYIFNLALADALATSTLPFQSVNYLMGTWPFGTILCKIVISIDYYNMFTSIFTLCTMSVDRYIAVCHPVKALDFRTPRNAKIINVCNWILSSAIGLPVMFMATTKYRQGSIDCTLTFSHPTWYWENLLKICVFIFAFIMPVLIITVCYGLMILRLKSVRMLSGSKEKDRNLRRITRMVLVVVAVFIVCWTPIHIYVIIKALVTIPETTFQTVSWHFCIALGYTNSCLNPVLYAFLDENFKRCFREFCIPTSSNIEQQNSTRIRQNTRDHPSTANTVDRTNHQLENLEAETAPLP
Kappa-type opioid receptor, sequence (P41145 whole entry): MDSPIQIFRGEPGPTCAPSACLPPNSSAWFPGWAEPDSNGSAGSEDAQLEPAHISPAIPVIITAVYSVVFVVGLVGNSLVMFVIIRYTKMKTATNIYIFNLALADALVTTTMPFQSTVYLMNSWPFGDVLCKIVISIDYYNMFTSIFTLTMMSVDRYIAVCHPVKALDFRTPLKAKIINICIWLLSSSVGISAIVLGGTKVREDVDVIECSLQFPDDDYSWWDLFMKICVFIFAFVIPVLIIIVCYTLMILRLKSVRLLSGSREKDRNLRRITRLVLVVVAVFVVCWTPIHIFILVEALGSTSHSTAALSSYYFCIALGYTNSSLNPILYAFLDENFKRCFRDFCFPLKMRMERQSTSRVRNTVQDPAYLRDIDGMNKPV

For orientation: Ki means the equilibrium dissociation constant of an inhibitor or competing ligand from its target. Consider `NC(=O)C[C@]1(Cc2ccc(F)cc2)C[C@H]2CC[C@@H](C1)N2C(c1ccccc1Cl)c1ccccc1Cl`, for which the Ki came out at 3 nM on Nociceptin receptor [1] and 190 nM at Mu-type opioid receptor [2]. In the data set filed under Homo sapiens, this molecule had a fold change (FC) of 63. Also, the outcome with Cavia porcellus [3] was inactive. The Ratio in data set [4] is listed as 0.35. Further, the Activity with Cavia porcellus [5] is recorded as 38%.
In general, EC50 refers to the concentration needed to bring the measured effect to its halfway point. On Nociceptin receptor [1], `COC(=O)N[C@]1(Cc2ccc(Cl)cc2)C[C@H]2CC[C@@H](C1)N2C(c1ccccc1Cl)c1ccccc1Cl` had a Ki of 56 nM. Further, the EC50 was 14 nM on Nociceptin receptor [6] and 1560 nM on Mu-type opioid receptor [9]. For the same molecule, the Ratio in data set [4] is on record as 1.1. Further, the Activity on Mu-type opioid receptor [7] amounted to 59%; at Nociceptin receptor [8] it was 85%.
A word on the ED50: it is the dose that gives a 50% effect, or the effect in half of the subjects. Take `NC(=O)[C@]1(c2ccc(F)cn2)C[C@H]2CC[C@@H](C1)N2C(c1ccccc1Cl)c1ccccc1Cl`: the Ki on Nociceptin receptor [1] came to 7 nM; at Mu-type opioid receptor [2] it was 123 nM; in data set [10] it was 3350 nM; in data set [11], 1610 nM. Also, the ED50 was 1.7 mg/kg in the data set listed under Rattus norvegicus, 0.3 mg/kg in the data set filed under Cavia porcellus [12] and 0.02 mg/kg in the data set on Cavia porcellus [14]. Further, in the data set filed under Homo sapiens, the fold change (FC) came to 37. In addition, the figures for the EC50 on Nociceptin receptor [6] and on Mu-type opioid receptor [9] were 20 nM and 733 nM, respectively. Besides, in [4], the Ratio worked out at 0.29. The “Ratio ED50” value in data set [13] amounted to 15. The Activity at Nociceptin receptor [15] came to 95%.
